Assay results from patent publication US11236086B2, “Substituted pyrrolopyridines as inhibitors of activin receptor-like kinase” (BLUEPRINT MEDICINES CORPORATION, priority 2017, dated 2022).

Key:
[1] = target: T1, human ALK2 R206H (Homo sapiens, UniProt Q04771, R206H); experiment: Cell-based ALK2-R206H cell activity assay (Smad1-Ser463/Ser465 phosphorylation by AlphaLISA in HEK293-ALK2-R206H cells); conditions: phospho-Smad1 AlphaLISA, read-out: Cell Line (Cell Assay, IC50 class)
T1 construct: expressed in transfected cells; host or cells: HEK293 (ATCC CRL1573), lentivirus transduction, blasticidin selection
T1 sequence (Q04771 21-509 R206H): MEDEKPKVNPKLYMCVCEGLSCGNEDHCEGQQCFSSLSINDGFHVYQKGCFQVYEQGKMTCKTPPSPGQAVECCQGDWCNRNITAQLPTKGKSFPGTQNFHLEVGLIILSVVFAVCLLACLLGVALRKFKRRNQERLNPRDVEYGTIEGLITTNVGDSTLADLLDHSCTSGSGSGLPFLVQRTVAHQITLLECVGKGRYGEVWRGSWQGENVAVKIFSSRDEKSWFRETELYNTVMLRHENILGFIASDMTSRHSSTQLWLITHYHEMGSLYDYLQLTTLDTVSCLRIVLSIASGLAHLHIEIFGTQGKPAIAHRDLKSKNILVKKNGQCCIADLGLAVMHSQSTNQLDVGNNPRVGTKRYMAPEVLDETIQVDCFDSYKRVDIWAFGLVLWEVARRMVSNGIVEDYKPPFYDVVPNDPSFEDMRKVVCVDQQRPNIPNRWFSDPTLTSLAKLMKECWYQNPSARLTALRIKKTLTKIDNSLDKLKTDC
Protocol: Example 11. Cell-Based ALK2-R206H Cell Activity Assay
A HEK293 (ATCC, Cat No. CRL1573) based stable cell line expressing human ALK2 R206H cDNA (synthesized by GeneScript, Piscataway, N.J.) and a FLAG tag at the C-terminus was generated by lentivirus transduction and subsequent blasticidin (Life Technologies, Cat No. A1113902) selection at 10 μg/ml for >2 wks. This cell line was named HEK293-ALK2-R206H.
B. Measurement of Smad1-Ser463/Ser465 Phosphorylation by AlphaLISA
HEK293-ALK2-R206H cells were grown, harvested, and then resuspended in serum-free, phenol red-free DMEM high glucose media (Life Technologies, Cat No. 31053). The media also contained 50 units/ml penicillin and 50 μg/ml streptomycin (Life Technologies, Cat. No. 15070-063). HEK293-ALK2-R206H cells were then plated in white opaque 384-wells microplates (2×10^4/well) (OptiPlate-384, PerkinElmer, Waltham, Mass., Cat No. 6007299) overnight (>16h) at 37° C. 5% CO2 for use in the assay.
Test compounds were first diluted to 4 mM or 0.4 mM and then serially diluted 3-fold into 10 different concentrations using DMSO. Each concentration of compound was further diluted 40-fold with phenol red-free DMEM (Life Technologies, Cat No. 31053). 2 μl of the diluted compounds were then dispensed into the HEK293-ALK2-R206H cell-containing wells of the microplates in duplicates. In this way, each compound was tested in 10 doses (3-fold serial dilution with the top concentration being 10 μM or 1 μM). Liquid handling was achieved using a Bravo Automated Liquid Handling Platform (Agilent Technologies). DMSO without compound was used as a negative control. The positive control was 1 μM LDN193189, a known bone morphogenetic protein (BMP inhibitor).
After 2-3 hours of incubation with test compound or control, the cells were lysed and signal was developed using ALPHASCREEN® SUREFIRE® SMAD1 (p-Ser463/465) cellular kinase assay kit (PerkinElmer, Cat No. TGRSM1S10K) following the manufacturer's recommended protocol. The microplates were read using Perkin Elmer ENVISION® plate reader (emission […]). The signal reflected the level of phospho-Ser/463/465-Smad1 in the lysate. The raw data were plotted using the DMSO negative and LDN193189 positive controls as the 0% and 100% inhibition, respectively. The 10-point dose response curve was used to calculate the IC50 values.
The results of this assay are shown in Table 3 in the column labeled “Cell Assay” wherein “A” represents an IC50 of less than or equal to 100 nM; “B” an IC50 of greater than 100 nM and less than or equal to 500 nM; “C” an IC50 of greater than 500 nM. Blank values in the table indicate that the particular compound was not tested in this assay.

[2] = target: T2, ALK2R206H (mutant ALK2, N-terminally tagged with GST) (Homo sapiens, UniProt Q04771, R206H); experiment: ALK binding assay (LANTHASCREEN TR-FRET competitive binding, displacement of Kinase Tracer 178); conditions: read-out: Binding Assay (IC50 class)
T2 construct: purchased Carna Bioscience or ThermoFisher 09-148 or PV6232
T2 sequence (Q04771 21-509 R206H): T1 sequence (Q04771 21-509 R206H)
Summary of the method: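 Competitive displacement of Kinase Tracer 178 (50 nM) from N-terminally GST-tagged mutant ALK2 R206H (2-5 nM) by compound, detected by TR-FRET with Eu-anti-GST antibody (4-10 nM). 30 min room temperature incubation, 1% DMSO final; normalized signal fitted to 4-parameter log dose response for IC50.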

SMILES	IC50 [1] [nM]	IC50 [2] [nM]
Cc1cc(-c2cc3c(N4CCN(C(=O)OC5COC5)CC4)ccnc3[nH]2)sn1 [Compound 171]	100 to 500	≤ 10
Cn1cc(-c2cc3c(N4CCN(C(=O)OC5CCC5)CC4)ccnc3[nH]2)cn1 [Compound 77]	≤ 100	≤ 10
Cn1cnc(-c2cc3c(N4CCN(C(=O)OC5COC5)CC4)ccnc3[nH]2)c1 [Compound 89]	≤ 100	≤ 10
Cc1nc(-c2[nH]c3nccc(N4CCN(C(=O)OC5COC5)CC4)c3c2Cl)cn1C [Compound 331]	≤ 100	≤ 10
Cn1cc(-c2[nH]c3nccc(N4CCN(C(=O)OC5CCC5)CC4)c3c2C#N)cn1 [Compound 200]	≤ 100	≤ 10
Cc1c(-c2cnn(C)c2)[nH]c2nccc(N3CCN(C(=O)OC4COC4)CC3)c12 [Compound 148]	100 to 500	≤ 10
CC(C#N)Cn1cc(-c2cc3c(N4CCN(C(=O)OC5COC5)CC4)ccnc3[nH]2)cn1 (stereo not drawn) [Compound 352]	100 to 500	≤ 10
CCCOC(=O)N1CCN(c2ccnc3[nH]c(-c4cnn(C)c4)cc23)CC1 [Compound 40]	100 to 500	≤ 10
Cn1ncc(-c2cc3c(N4CCN(C(=O)OC5COC5)CC4)ccnc3[nH]2)c1C(F)F [Compound 336]	100 to 500	≤ 10
Cn1cnc(-c2[nH]c3nccc(N4CCN(C(=O)OC5CC(F)(F)C5)CC4)c3c2C#N)c1 [Compound 370]	≤ 100	≤ 10
Cc1cnc(-c2cc3c(N4CCN(C(=O)OC5COC5)CC4)ccnc3[nH]2)s1 [Compound 174]	100 to 500	≤ 10
O=C(O[C@H]1C[C@H](F)C1)N1CCN(c2ccnc3[nH]c(-c4nc5c(s4)COCC5)cc23)CC1 [Compound 416]	≤ 100	≤ 10
Cc1nc(-c2cc3c(N4CCN(C(=O)OCC(F)F)CC4)ccnc3[nH]2)sc1C [Compound 291]	≤ 100	≤ 10
Cc1nc(-c2cc3c(N4CCN(C(=O)OC5CCC5)CC4)ccnc3[nH]2)cn1C [Compound 139]	≤ 100	≤ 10
CCc1ccc(-c2cc3c(N4CCN(C(=O)C5CC5)CC4)ccnc3[nH]2)cc1 [Compound 52]	100 to 500	10 to 50
CC(C)(O)c1ccc(-c2cc3c(N4CCN(C(=O)C5CC5)CC4)ccnc3[nH]2)cc1 [Compound 195]	≤ 100	≤ 10
COC1(c2ccc(-c3cc4c(N5CCN(C(=O)OC6COC6)CC5)ccnc4[nH]3)nc2)CCN(C[C@H](C)F)CC1 [Compound 478]	≤ 100	≤ 10
CN(C)C(=O)COc1ccc(-c2cc3c(N4CCN(C(=O)C5CC5)CC4)ccnc3[nH]2)cc1 [Compound 388]	100 to 500	≤ 10
Cc1nc(-c2cc3c(N4CCN(C(=O)OC5COC5)CC4)ccnc3[nH]2)sc1C [Compound 250]	≤ 100	≤ 10
CC(C)CC(=O)N1CCN(c2ccnc3[nH]c(-c4cnn(C)c4)cc23)CC1 [Compound 32]	100 to 500	10 to 50
O=C(C1CC1)N1CCN(c2ccnc3[nH]c(-c4ccc(C5(O)CCOCC5)cc4)cc23)CC1 [Compound 386]	≤ 100	≤ 10
CCOC(=O)N1CCN(c2ccnc3[nH]c(-c4cnn(C)c4)c(Cl)c23)CC1 [Compound 121]	≤ 100	≤ 10
CCc1csc(-c2cc3c(N4CCN(C(=O)OC5COC5)CC4)ccnc3[nH]2)n1 [Compound 251]	100 to 500	≤ 10

SMILES	IC50 [1] [nM]	IC50 [2] [nM]
CCOC(=O)N1CCN(c2ccnc3[nH]c(-c4cnn(C)c4CC)cc23)CC1 [Compound 100]	100 to 500	≤ 10
O=C(OC1COC1)N1CCN(c2ccnc3[nH]c(-c4cnn(C5COC5)c4)cc23)CC1 [Compound 300]	100 to 500	≤ 10
CCOC(=O)N1CCN(c2ccnc3[nH]c(-c4cn(C)nn4)cc23)CC1 [Compound 13]	100 to 500	≤ 10
CCN1CC[C@@H](c2ccc(-c3cc4c(N5CCN(C(=O)C6CC6)CC5)ccnc4[nH]3)cc2)C(F)(F)C1 [Compound 458]	≤ 100	≤ 10
O=C(C1CC1)N1CCN(c2ccnc3[nH]c(-c4ccc(N5CCN(CC(F)F)CC5)cc4)cc23)CC1 [Compound 461]	100 to 500	≤ 10
Cn1cc(-c2cc3c(N4CCN(C(=O)[C@@H]5C[C@H]5F)CC4)ccnc3[nH]2)cn1 [Compound 37]	≤ 100	≤ 10
CCOC(=O)N1CCN(c2ccnc3[nH]c(-c4cnn(C(C)(C)C#N)c4)cc23)CC1 [Compound 213]	100 to 500	≤ 10
Cn1cc(-c2cc3c(N4CCN(C(=O)OC5COC5)CC4)ccnc3[nH]2)c(F)n1 [Compound 179]	100 to 500	≤ 10
COc1cccc(-c2cc3c(N4CCN(C(=O)C5CC5)CC4)ccnc3[nH]2)c1 [Compound 59]	100 to 500	≤ 10
Cc1cc(-c2cc3c(N4CCN(C(=O)OC5COC5)CC4)ccnc3[nH]2)cs1 [Compound 169]	≤ 100	≤ 10
Cn1cc(-c2cc3c(N4CCN(C(=O)OC5COC5)CC4)ccnc3[nH]2)nn1 [Compound 105]	100 to 500	≤ 10
Cn1cc(-c2cc3c(N4CCN(C(=O)O[C@H]5C[C@H](C#N)C5)CC4)ccnc3[nH]2)cn1 [Compound 202]	≤ 100	≤ 10
Cn1cc(-c2cc3c(N4CCN(C(=O)OC5COC5)CC4)ccnc3[nH]2)cc1C#N [Compound 203]	≤ 100	≤ 10
COC(=O)COc1ccc(-c2cc3c(N4CCN(C(=O)C5CC5)CC4)ccnc3[nH]2)cc1 [Compound 348]	> 500	≤ 10
CC(C)(O)c1cnc(-c2cc3c(N4CCN(C(=O)OC5COC5)CC4)ccnc3[nH]2)s1 [Compound 377]	≤ 100	≤ 10
O=C(C1CC1)N1CCN(c2ccnc3[nH]c(-c4ncco4)cc23)CC1 [Compound 1]	> 500	10 to 50
O=C(C1CC1)N1CCN(c2ccnc3[nH]c(-c4cnn(C5CCCC5)c4)cc23)CC1 [Compound 197]	≤ 100	≤ 10
C[C@@H](F)COC(=O)N1CCN(c2ccnc3[nH]c(-c4cnn(C)c4)cc23)CC1 [Compound 118]	100 to 500	≤ 10
O=C(OC1COC1)N1CCN(c2ccnc3[nH]c(-c4cccnc4)cc23)CC1 [Compound 67]	100 to 500	≤ 10
Cn1cc(-c2[nH]c3nccc(N4CCN(C(=O)O[C@H]5CCC5(F)F)CC4)c3c2C#N)cn1 [Compound 367]	≤ 100	≤ 10
CCn1cnc(-c2[nH]c3nccc(N4CCN(C(=O)OC5COC5)CC4)c3c2C#N)c1 [Compound 290]	≤ 100	≤ 10
O=C(C1CC1)N1CCN(c2ccnc3[nH]c(-c4cnn(C5COC5)c4)cc23)CC1 [Compound 133]	100 to 500	≤ 10
